How the values were obtained:
[1] = tested on: multi-drug resistant (MRSA) Staphylococcus aureus (NRS-385); experiment: Clearing zone test on tryptic soy agar against MRSA; assay type: cell-based; details: for resistance / sensitivity to control antibiotics: clinically relevant dose 10 μg/ml
Protocol: (§1) FIG. 8 nanogels conjugated with polymyxin B (PmxnB) or vancomycin (VCM) and/or loaded with 5 mg/ml penicillin/streptomycin (Pen/Strep), and tested on tryptic soy agar for activity against multi-drug resistant (MRSA) Staphylococcus aureus (NRS-385). (1) unmodified particle, Pen/Strep loaded; (2) unmodified particle; (3) Pen-Strep loaded and conjugated with PmxnB; (4) conjugated with PmxnB; (5) conjugated with VCM, Pen-Strep loaded; (6) conjugated with VCM; (7) conjugated with PmxnB/AMCA, Pen/Strep loaded; (8) conjugated with PmxnB/AMCA (fluorescent agent); (9) conjugated with VCM/AMCA, Pen/Strep loaded; (10) conjugated with VCM/AMCA; (11) PmxnB at 5 mg/ml; (12) VCM at 5 mg/ml; (13) Pen/Strep at 5 mg/nil; (14) PmxnB at 100 μg/ml; (15) VCM at 100 μg/ml; (16) Pen/Strep at 100 μg/ml; (17) PmxnB at 10 μg/ml; (18) VCM at 10 μg/ml; (19) Pen/Strep at 10 μg/ml.
(§2) Acinetobacter baumannii (a) treated with the hydrogel conjugated with polymyxin B (PMB) produced a clearing zone of ˜15 mm in diameter. […] Methicillin-resistant S. aureus (MRSA) (b) treated with VCM-conjugated particles produced a clearing zone of ˜15 mm in diameter.
(§3) The concept for targeted killing of bacterial pathogens with the hydrogels of the invention is illustrated in FIG. 1.

[2] = tested on: multi-drug resistant (and expanded-spectrum beta-lactamase resistant) Acinetobacter baumannii (BAA-1605); experiment: Clearing zone test on tryptic soy agar against multi-drug resistant Acinetobacter baumannii; assay type: cell-based; details: for resistance / sensitivity to control antibiotics: clinically relevant dose 10 μg/ml, A. baumannii
Protocol: as §1, with “FIG. 7 nanogels conjugated” for “FIG. 8 nanogels conjugated”, “with 5 mg/nil penicillin/streptomycin (Pen/Strep),” for “with 5 mg/ml penicillin/streptomycin (Pen/Strep),”, “multi-drug resistant (and expanded-spectrum beta-lactamase resistant) Acinetobacter baumannii (BAA-1605). (1) unmodified” for “multi-drug resistant (MRSA) Staphylococcus aureus (NRS-385). (1) unmodified”, “at 5 mg/ml; (14) PmxnB” for “at 5 mg/nil; (14) PmxnB”
as §2, §3

Compound	resistance / sensitivity to control antibiotics [1]	clearing zone ([1]; free antibiotic 10 μg/ml) [mm]	resistance / sensitivity to control antibiotics [2]	inhibition (clearing zone) ([2]; free control antibiotics (10 μg/ml), MDR A. baumannii)	inhibition (clearing zone) ([1]; free control antibiotics at 10 μg/ml)	clearing zone ([2]; free antibiotic 10 μg/ml, MDR A. baumannii) [mm]
CN[C@H](CC(C)C)C(=O)N[C@H]1C(=O)N[C@@H](CC(N)=O)C(=O)N[C@H]2C(=O)N[C@H]3C(=O)N[C@H](C(=O)N[C@H](C(=O)O)c4cc(O)cc(O)c4-c4cc3ccc4O)[C@H](O)c3ccc(c(Cl)c3)Oc3cc2cc(c3O[C@@H]2O[C@H](CO)[C@@H](O)[C@H](O)[C@H]2O[C@H]2C[C@](C)(N)[C@H](O)[C@H](C)O2)Oc2ccc(cc2Cl)[C@H]1O [Free VCM, Vancomycin]	sensitive	~6	resistant	no inhibition		
polymyxin B [Free PMB]	resistant		sensitive		no inhibition	~6

Reference: US10799600B1, “Targeted nanoparticles” (nanoDERM Sciences, Inc., priority 2010, dated 2020)
